Earlier results as cited in US20060089285A1, “Stabilized chlorine bleach in alkaline detergent composition and method of making and using the same” (priority 2004, published 2006).

Key:
[1] = in an alkaline liquid detergent; prior art statement
[2] = OCl-/HOCl equilibrium, ambient temperature

Row | shelf stability [1] | pKa [2] | Structure (SMILES)
1 | about 3 months |  | OCl [sodium hypochlorite bleach, Sodium hypochlorite]
2 |  | 7.5 | OCl [HOCl]
